{
  "source": "patent US6140120A",
  "about": "“Regulated transcription of targeted genes and other biological events” (Board of Trustees of Leland Stanford Jr. University, priority 1998, dated 2000)",
  "key": {"[1]": {"system": "myristoylated chimeric CD3/FKBP12 (MZF3E) receptor", "assay": "NFAT-SEAP reporter through myristoylated chimeric CD3/FKBP12 (MZF3E) receptor", "type": "cell-based, human", "from_the_text": "In an illustrative case, this was accomplished by creating an intracellular receptor comprised of a small fragment of Src sufficient for posttranslational myristoylation (M), the cytoplasmic tail of zeta (Z; a component of the […] was also used), three consecutive FKBP12s (F3) and a flu epitope tag (E). Upon expressing the construct MZF3E (FIG. 18) in human (Jurkat) T cells, we confirmed that the encoded chimeric protein underwent FK1012-mediated oligomerization. The attendant aggregation of the zeta chains led to signaling via the endogenous TCR-signaling pathway (FIG. 15), as evidenced by secretion of alkaline phosphatase (SEAP) in response to an FK1012 (EC50 =50 nM). The promoter of the SEAP reporter gene was constructed to be transcriptionally activated by nuclear factor of activated T cells (NFAT), which is assembled in the nucleus following TCR-signaling.\nSpecifically, 5 μg of the eukaryotic expression vector, pBJ5, containing a myristoylated chimeric receptor was co-transfected with 4 μg NFAT-SX. MZE, MZF1E, MZF2E and MZF3E contain 0,1, 2, or 3 copies of FKBP12, respectively, downstream of a myristoylated CD3 cytoplasmic domain (see FIG. 2). As a control, 5 μg of pBJ5 was used in a parallel transfection. After 24 hours, aliquots of each transfection containing approximately 10^5 cells were incubated with log dilutions of the drug, FK1012B, as indicated. As a positive control and to control for transfection efficiency, ionomycin (1 μm) and PMA (25 ng/ml) were added to aliquots from each transfection. After an additional 12 hour incubation, the supernatants were assayed for alkaline phosphatase activity and these activities were expressed relative to that of the positive control samples. […] Compare FIGS. 7 and 8."}, "[2]": {"system": "cell culture", "assay": "Toxicity in cell culture", "type": "cell-based"}, "[3]": {"system": "chimeric FKBP12/CD3 (1FK3) receptor", "assay": "NFAT-SEAP reporter through chimeric FKBP12/CD3 (1FK3) receptor", "type": "cell-based, human", "settings": "2 ng/ml FK506; FK1012A-stimulated", "method": "5 μg of the eukaryotic expression vector, pBJ5, (based on pCDL-SR with a polylinker inserted between the 16S splice site and the poly A site), containing the chimeric receptor (1FK3), was co-transfected with 4 μg of the NFAT-inducible secreted alkaline phosphatase reporter plasmid, NFAT-SX. As a control, 5 μg of pBJ5 was used, instead of 1FK3/pBJ5, in a parallel transfection. After 24 hours, aliquots of each transfection containing approximately 10^5 cells were incubated with log dilutions of the drug, FK1012A, as indicated. As a positive control and to control for transfection efficiency, ionomycin (1 μm) and PMA (25 ng/ml) were added to aliquots from each transfection. After an additional 14 hour incubation, the supernatants were assayed for alkaline phosphatase activity and these activities were expressed relative to that of the positive control samples."}, "[4]": {"system": "TAC/TAC/Z (TTZ) chimeric receptor; IL-2 enhancer/NFAT reporter in TAg Jurkat cells", "assay": "SEAP reporter induction through chimeric receptor TAC/TAC/Z (TTZ)", "type": "cell-based, human", "settings": "1 ng/ml FK506", "method": "As a positive control and to control for transfection efficiency, ionomycin (1 μm) and PMA (25 ng/ml) were added to aliquots from each transfection."}, "[5]": {"system": "calcineurin", "settings": "complex with cyclophilin or FKBP12; cited from earlier work"}, "[6]": {"system": "MZF1Eflu and MZF1Eflag", "assay": "Co-immunoprecipitation of FKBP monomer constructs MZF1E", "type": "cell-based, human"}, "[7]": {"system": "MZF3E chimera in Jurkat T cells", "assay": "Co-immunoprecipitation of MZF3Eflu with MZF3Eflag (induced dimerization)", "type": "cell-based, human", "settings": "1 μM"}, "[8]": {"system": "T cell receptor zeta chain / MZF3E in Jurkat cells", "assay": "Recruitment of kinase activity to zeta-chain (in vitro kinase assay after immunoprecipitation) and tyrosine phosphorylation", "type": "cell-based, human", "settings": "Jurkat cells stably transfected with MZF3E", "from_the_text": "FK1012-induced protein-tyrosine phosphorylation. The intracellular domains of the TCR, CD3 and zeta-chains interact with cytoplasmic protein tyrosine kinases following antigen stimulation. Specific members of the Src family (lck and/or fyn) phosphorylate one or more tyrosine residues of activation motifs within these intracellular domains (tyrosine activation motif, TAM). The tyrosine kinase ZAP-70 is recruited (via its two SH2 domains) to the tyrosine phosphorylated T-cell-receptor, activated, and is likely to be involved in the further downstream activation of phospholipase C. […] Tyrosine phosphorylation after treatment of cells with either anti-CD3 MAb or FK1012 was detected using monoclonal alpha-phosphotyrosine antibodies. Whole cell lysates were analysed at varying times after stimulation. […] The pattern consisted of a major band of 70 kDa, probably ZAP-70, and minor bands of 120 kDa, 62 kDa, 55 kDa and 42 kDa."}, "[9]": {"molecular_target": "FKBP12 (Homo sapiens, UniProt P62942)", "sequence (P62942 whole entry)": "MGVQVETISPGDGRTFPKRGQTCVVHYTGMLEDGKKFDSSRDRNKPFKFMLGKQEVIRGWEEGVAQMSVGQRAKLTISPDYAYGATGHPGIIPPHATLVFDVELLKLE", "assay": "Binding of FK1012s, stoichiometry and Kd", "settings": "2:1 binding stoichiometry"}, "[10]": {"system": "FKBP12-Fas antigen chimera in D10 T cells", "assay": "Apoptosis through FKBP12-Fas chimera in D10 T cells", "type": "cell-based", "settings": "murine D10 T cells", "from_the_text": "(§1) A chimeric cDNA has been constructed consisting of three FKBP12 domains fused to the cytoplasmic signaling domain of the Fas antigen (FIG. 20). […] Since the stable transfectants represent a homogeneous population of cells, they have been used to ascertain that death is due to apoptosis rather than necrosis (membrane blebbing, nucleosomal DNA fragmentation). However, the transient transfection protocol requires much less work and has therefore been used as an initial assay system, as described below."}, "[11]": {"system": "calcineurin-mediated TCR signaling", "assay": "Inhibition of calcineurin-mediated TCR signaling / immunosuppression", "type": "cell-based", "settings": "listed as FK1012s"}, "[12]": {"system": "ΔMFF3E", "assay": "Apoptosis with non-myristoylated construct ΔMFF3E", "type": "cell-based", "settings": "ΔMFF3E vs. myristoylated construct"}, "[13]": {"system": "Fas-FKBP12 fusion protein (MFF3E) in Jurkat T cells", "assay": "Cell death/apoptosis through Fas-FKBP12 fusion MFF3E in Jurkat T cells", "type": "cell-based", "settings": "human Jurkat T cells", "from_the_text": "FIG. 21B depicts Immunphilin-Fas antigen chirneras and results of transient expression experiments in Jurkat T cells stably transformed with large T-antigen. Myr: the myristylation sequence taken from pp60^c-src encoding residues 1-14 (Wilson et al, Mol & Cell Biol 9 4 (1989): 1536-44); FKBP: human FKBP12; CypC: murine cyclophilin C sequence encoding residues 36-212 (Freidman et al, Cell 66 4 (1991): 799-806); Fas: intracellular domain of human Fas antigen encoding residues 179-319 (Oehm et al, J Biol Chem 267 15 (1992): 10709-15). Cells were electroporated with a plasmid encoding a secreted alkaline phosphatase reporter gene under the control of 3 tandem API promoters along with a six fold molar excess of the immunophilin fusion construct. After 24 h the cells were stimulated with PMA (50 ng/mL), which stimulates the synthesis of the reporter gene, and (CsA)2. At 48 h the cells were assayed for reporter gene activity. Western blots were performed at 24 h using anti-HA epitope antibodies.\nas §1, with “However, the transient transfection protocol requires much less work and has therefore been used as an initial assay system, as described below.” left out"}},
  "note": "“Also recorded” adds a separate entry of the source. Read-outs that look alike come from different tables or passages of the source.",
  "data": [
    {"compound": "CO[C@H]1C[C@@H](C)C/C(C)=C/[C@@H](CCOC(=O)NCc2ccccc2)C(=O)C[C@H](O)[C@@H](C)[C@@H](/C(C)=C/[C@@H]2CC[C@@H](O)[C@H](OC)C2)OC(=O)[C@@H]2CCCCN2C(=O)C(=O)[C@]2(O)O[C@H]1[C@@H](OC)C[C@H]2C", "note": "[FK506-M]", "values": [
      {"measurement": "termination of FK1012-induced signaling", "setting": "[1]; monomeric ligand", "value": "FK1012-induced signaling can be terminated"},
      {"measurement": "toxicity of monomeric ligand", "setting": "[2]; in words", "value": "nontoxic"}
    ]},
    {"compound": "C=CC[C@@H]1/C=C(\\C)C[C@H](C)C[C@H](OC)[C@H]2O[C@@](O)(C(=O)C(=O)N3CCCC[C@H]3C(=O)O[C@H](/C(C)=C/[C@@H]3CC[C@@H](O)[C@H](OC)C3)[C@H](C)[C@@H](O)CC1=O)[C@H](C)C[C@@H]2OC", "note": "[FK506]", "values": [
      {"measurement": "stimulation of NFAT reporter on addition of FK506", "setting": "[1]; 1 ng/ml FK506, FK1012B-stimulated", "value": "dropped all stimulations to near background levels"},
      {"measurement": "stimulation of NFAT reporter on addition of FK506", "setting": "[3]", "value": "dropped all stimulations to background levels"},
      {"measurement": "response of NFAT reporter on addition of FK506", "setting": "[4]", "value": "dropped all activity due to NFAT to background levels"},
      {"measurement": "binding to / inactivation of calcineurin as immunophilin complex", "setting": "[5]", "value": "binds with high affinity to calcineurin"}
    ]},
    {"compound": "CO[C@H]1C[C@@H](C)C/C(C)=C/[C@@H](CCOC(=O)NCc2ccc(CNC(=O)OCC[C@@H]3/C=C(\\C)C[C@H](C)C[C@H](OC)[C@H]4O[C@@](O)(C(=O)C(=O)N5CCCC[C@H]5C(=O)O[C@H](/C(C)=C/[C@@H]5CC[C@@H](O)[C@H](OC)C5)[C@H](C)[C@@H](O)CC3=O)[C@H](C)C[C@@H]4OC)cc2)C(=O)C[C@H](O)[C@@H](C)[C@@H](/C(C)=C/[C@@H]2CC[C@@H](O)[C@H](OC)C2)OC(=O)[C@@H]2CCCCN2C(=O)C(=O)[C@]2(O)O[C@H]1[C@@H](OC)C[C@H]2C", "note": "[FK1012A]", "values": [
      {"measurement": "dimerization of FKBP monomer constructs", "setting": "[6]", "value": "also dimerized"},
      {"measurement": "coimmunoprecipitation of MZF3Eflu with MZF3Eflag", "setting": "[7]", "value": "interacts with MZF3Eflu and is coimmunoprecipitated with MZF3Eflag"},
      {"measurement": "recruitment of kinase activity to the zeta-chain", "setting": "[8]", "value": "recruitment of kinase activity to the zeta-chain"}
    ]},
    {"compound": "FK1012", "values": [
      {"measurement": "EC50", "setting": "[1]; Jurkat T cells expressing MZF3E, read-out: EC50, secretion of alkaline phosphatase (SEAP)", "value": 50, "unit": "nM"},
      {"measurement": "Kd", "setting": "[9]; read-out: Kd (1)", "value": 0.1, "unit": "nM"},
      {"measurement": "Kd", "setting": "[9]; read-out: Kd (2)", "value": 0.8, "unit": "nM"},
      {"measurement": "induction of apoptosis", "setting": "[10]", "value": "FK1012-dependent apoptosis"},
      {"measurement": "toxicity", "setting": "[2]; FK1012s: up to 0.1 mM in cell culture", "value": "nor toxic (up to 0.1 mM in cell culture)"},
      {"measurement": "inhibition of signaling", "setting": "[11]", "value": "does not inhibit signaling pathways; also recorded: do not inhibit calcineurin-mediated TCR signaling"},
      {"measurement": "potency of mutated construct as inducer of FK1012-dependent apoptosis", "setting": "[12]", "value": "equally potent"},
      {"measurement": "induction of cell death / apoptosis", "setting": "[13]", "value": "FK1012-dependent apoptosis; also recorded: cell death of the Jurkat T-cell line"}
    ]}
  ]
}
